Laboratory results taken from ChEMBL document CHEMBL5252528, “Transient Receptor Potential Melastatin 8 Channel (TRPM8) Modulation: Cool Entryway for Treating Pain and Cancer” (J Med Chem, 2016).

What was measured:
[1] = molecular target: Transient receptor potential cation channel subfamily M member 8 (Mus musculus, UniProt Q8R4D5); assay: Agonist activity at mouse TRMP8 expressed in HEK293 cells; format: cell-based
[2] = molecular target: T1, Transient receptor potential cation channel subfamily M member 8 (Homo sapiens, UniProt Q7Z2W7); assay: Antagonist activity at human TRMP8 incubated for 24 hrs; format: cell-based, HEK293
[3] = molecular target: T1, Transient receptor potential cation channel subfamily M member 8; assay: […] activity at human TRMP8 expressed in HEK293 cells incubated for 24 hrs by HTS assay; format: cell-based
[4] = molecular target: T1, Transient receptor potential cation channel subfamily M member 8; assay: Agonist activity at human TRMP8 expressed in HEK293 cells; format: cell-based
[5] = molecular target: T1, Transient receptor potential cation channel subfamily M member 8; assay: Agonist activity at TRPM8 (unknown origin) by fluorometric imaging plate reader analysis
Rattus norvegicus [6] = assay: Antihypersensitivity activity at rat assessed as reduction in wet-dog shakes at 1 mg/kg relative to control; format: functional
[7] = molecular target: T1, Transient receptor potential cation channel subfamily M member 8; assay: Antagonist activity at human TRPM8 expressed in CHO cells; format: cell-based
[8] = molecular target: T1, Transient receptor potential cation channel subfamily M member 8; assay: Antagonist activity at TRPM8 (unknown origin)
[9] = molecular target: T1, Transient receptor potential cation channel subfamily M member 8; assay: Antagonist activity at human TRPM8 expressed in HEK293 cells; format: cell-based
[10] = molecular target: T1, Transient receptor potential cation channel subfamily M member 8; assay: Antagonist activity at human TRPM8 expressed in […] induced HEK293 cells; format: cell-based
[11] = molecular target: T1, Transient receptor potential cation channel subfamily M member 8; assay: Agonist activity at human recombinant TRPM8
[12] = molecular target: T1, Transient receptor potential cation channel subfamily M member 8; assay: Antagonist activity at human TRPM8 expressed in HEK293 cells assessed as reduction in menthol induced calcium influx; format: cell-based
Rattus norvegicus [13] = assay: Antinociceptive activity at rat assessed as reduction in pain at 30 mg/kg, po relative to control; format: functional
[14] = molecular target: T1, Transient receptor potential cation channel subfamily M member 8; assay: […] activity at human TRMP8 expressed in HEK293 cells measured after 24 hrs of cold activation by patch clamp assay; format: cell-based
Rattus norvegicus [15] = assay: Antihypersensitivity activity at cfa induced rat assessed as thermal and mechanical hyperalgesia at 10 mg/kg, po relative to control; format: functional
[16] = molecular target: T1, Transient receptor potential cation channel subfamily M member 8; assay: […] activity at human TRMP8 expressed in HEK293 cells measured after 24 hrs of menthol activation by patch clamp assay; format: cell-based
Rattus norvegicus [17] = assay: Antihypersensitivity activity at carrageenan induced rat assessed as reduction in heat hypersensitivity at 30 mg/kg, po relative to control; format: functional
Rattus norvegicus [18] = species: Rattus norvegicus; assay: Antihypersensitivity activity at rat assessed as cardiovascular pressor responses relative to control; format: functional
Rattus norvegicus [19] = species: Rattus norvegicus; assay: Antihypersensitivity activity at rat assessed as reduction in wet-dog shakes relative to control; format: functional
Rattus norvegicus [20] = assay: Antihypersensitivity activity at icilin induced rat assessed as reduction in wet-dog shakes at 3 mg/kg relative to control; format: functional
[21] = molecular target: T1, Transient receptor potential cation channel subfamily M member 8; assay: Agonist activity at TRPM8 (unknown origin)
Rattus norvegicus [22] = assay: Reversal of icilin induced behaviours in rat at 30 mg/kg, po relative to control; format: functional
[23] = molecular target: Transient receptor potential cation channel subfamily A member 1 (Homo sapiens, UniProt O75762); assay: Agonist activity at TRPA1 (unknown origin)
Rattus norvegicus [24] = assay: Reversal of icilin induced behaviours in rat at 10 mg/kg, po relative to control; format: functional
Rattus norvegicus [25] = species: Rattus norvegicus; assay: Antihypersensitivity activity at rat assessed as reduction in pain relative to control; format: functional
[26] = molecular target: Transient receptor potential cation channel subfamily V member 1 (Homo sapiens, UniProt Q8NER1); assay: Modulation of TRPV1 (unknown origin) by fluorometric imaging plate reader analysis
[27] = molecular target: Transient receptor potential cation channel subfamily M member 8 (Rattus norvegicus) (UniProt Q8R455); assay: In vivo antagonist activity at TRPM8 in po dosed rat assessed as shaking behaviour; format: functional, organism-based
[28] = molecular target: T1, Transient receptor potential cation channel subfamily M member 8; assay: Antagonist activity at TRPM8 (unknown origin) by fluorescence based assay

T1 sequence (Q7Z2W7 whole entry): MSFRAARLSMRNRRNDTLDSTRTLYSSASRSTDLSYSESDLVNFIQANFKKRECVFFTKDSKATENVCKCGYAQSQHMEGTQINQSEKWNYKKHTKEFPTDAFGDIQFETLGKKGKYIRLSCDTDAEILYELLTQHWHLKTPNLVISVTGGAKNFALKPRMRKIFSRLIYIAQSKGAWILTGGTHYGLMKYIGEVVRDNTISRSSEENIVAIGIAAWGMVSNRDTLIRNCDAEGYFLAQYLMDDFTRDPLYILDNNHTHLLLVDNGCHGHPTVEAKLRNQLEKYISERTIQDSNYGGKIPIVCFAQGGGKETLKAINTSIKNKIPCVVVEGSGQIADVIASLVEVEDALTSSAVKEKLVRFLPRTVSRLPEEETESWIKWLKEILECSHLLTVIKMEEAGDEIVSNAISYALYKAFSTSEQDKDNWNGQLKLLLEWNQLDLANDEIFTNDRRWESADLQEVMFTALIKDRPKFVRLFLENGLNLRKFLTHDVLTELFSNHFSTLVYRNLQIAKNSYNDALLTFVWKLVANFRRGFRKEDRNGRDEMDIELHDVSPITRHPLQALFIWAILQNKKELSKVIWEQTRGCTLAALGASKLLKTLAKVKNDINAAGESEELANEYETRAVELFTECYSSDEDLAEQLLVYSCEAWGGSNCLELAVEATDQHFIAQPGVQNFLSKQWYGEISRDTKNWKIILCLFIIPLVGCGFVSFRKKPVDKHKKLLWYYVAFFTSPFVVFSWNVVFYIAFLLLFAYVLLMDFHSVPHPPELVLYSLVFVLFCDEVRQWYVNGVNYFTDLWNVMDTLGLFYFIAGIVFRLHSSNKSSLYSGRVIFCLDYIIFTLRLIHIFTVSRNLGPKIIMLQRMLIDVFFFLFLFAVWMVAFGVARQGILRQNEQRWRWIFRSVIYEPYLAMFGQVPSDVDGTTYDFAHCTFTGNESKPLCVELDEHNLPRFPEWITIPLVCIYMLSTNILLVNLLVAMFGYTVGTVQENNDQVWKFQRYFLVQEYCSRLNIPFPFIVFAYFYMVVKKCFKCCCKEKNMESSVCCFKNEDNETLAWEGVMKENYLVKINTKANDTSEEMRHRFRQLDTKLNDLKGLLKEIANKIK
Sequence of Transient receptor potential cation channel subfamily M member 8 (Mus musculus, UniProt Q8R4D5) (Q8R4D5 whole entry): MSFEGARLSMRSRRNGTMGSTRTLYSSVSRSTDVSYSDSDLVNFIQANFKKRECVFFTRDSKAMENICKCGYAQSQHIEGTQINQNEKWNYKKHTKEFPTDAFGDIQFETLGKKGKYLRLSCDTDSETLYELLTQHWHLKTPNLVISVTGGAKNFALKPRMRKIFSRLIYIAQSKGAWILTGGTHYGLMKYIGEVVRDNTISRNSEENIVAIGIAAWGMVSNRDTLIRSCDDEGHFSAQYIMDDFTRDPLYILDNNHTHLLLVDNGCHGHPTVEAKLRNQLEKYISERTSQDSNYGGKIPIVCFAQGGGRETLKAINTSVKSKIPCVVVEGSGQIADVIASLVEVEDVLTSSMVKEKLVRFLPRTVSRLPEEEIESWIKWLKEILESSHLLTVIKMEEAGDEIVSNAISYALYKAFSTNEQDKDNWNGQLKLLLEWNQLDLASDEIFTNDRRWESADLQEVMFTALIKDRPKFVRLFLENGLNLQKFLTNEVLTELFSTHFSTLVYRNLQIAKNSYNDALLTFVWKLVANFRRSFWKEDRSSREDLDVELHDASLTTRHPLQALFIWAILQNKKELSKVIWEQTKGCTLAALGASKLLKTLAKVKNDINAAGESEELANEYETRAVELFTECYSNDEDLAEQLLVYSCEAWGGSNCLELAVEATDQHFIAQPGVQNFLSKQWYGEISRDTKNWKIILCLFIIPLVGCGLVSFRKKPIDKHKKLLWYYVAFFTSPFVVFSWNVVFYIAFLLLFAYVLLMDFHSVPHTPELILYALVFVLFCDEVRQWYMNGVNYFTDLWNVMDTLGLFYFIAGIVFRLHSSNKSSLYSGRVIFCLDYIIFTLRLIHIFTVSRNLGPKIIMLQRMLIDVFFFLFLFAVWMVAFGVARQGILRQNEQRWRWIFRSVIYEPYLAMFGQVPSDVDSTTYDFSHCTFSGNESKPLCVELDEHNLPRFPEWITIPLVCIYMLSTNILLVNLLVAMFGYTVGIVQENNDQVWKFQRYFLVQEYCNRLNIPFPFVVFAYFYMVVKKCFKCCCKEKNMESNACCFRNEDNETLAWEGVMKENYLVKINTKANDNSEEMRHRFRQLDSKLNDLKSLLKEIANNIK
Sequence of Transient receptor potential cation channel subfamily V member 1 (Q8NER1 whole entry): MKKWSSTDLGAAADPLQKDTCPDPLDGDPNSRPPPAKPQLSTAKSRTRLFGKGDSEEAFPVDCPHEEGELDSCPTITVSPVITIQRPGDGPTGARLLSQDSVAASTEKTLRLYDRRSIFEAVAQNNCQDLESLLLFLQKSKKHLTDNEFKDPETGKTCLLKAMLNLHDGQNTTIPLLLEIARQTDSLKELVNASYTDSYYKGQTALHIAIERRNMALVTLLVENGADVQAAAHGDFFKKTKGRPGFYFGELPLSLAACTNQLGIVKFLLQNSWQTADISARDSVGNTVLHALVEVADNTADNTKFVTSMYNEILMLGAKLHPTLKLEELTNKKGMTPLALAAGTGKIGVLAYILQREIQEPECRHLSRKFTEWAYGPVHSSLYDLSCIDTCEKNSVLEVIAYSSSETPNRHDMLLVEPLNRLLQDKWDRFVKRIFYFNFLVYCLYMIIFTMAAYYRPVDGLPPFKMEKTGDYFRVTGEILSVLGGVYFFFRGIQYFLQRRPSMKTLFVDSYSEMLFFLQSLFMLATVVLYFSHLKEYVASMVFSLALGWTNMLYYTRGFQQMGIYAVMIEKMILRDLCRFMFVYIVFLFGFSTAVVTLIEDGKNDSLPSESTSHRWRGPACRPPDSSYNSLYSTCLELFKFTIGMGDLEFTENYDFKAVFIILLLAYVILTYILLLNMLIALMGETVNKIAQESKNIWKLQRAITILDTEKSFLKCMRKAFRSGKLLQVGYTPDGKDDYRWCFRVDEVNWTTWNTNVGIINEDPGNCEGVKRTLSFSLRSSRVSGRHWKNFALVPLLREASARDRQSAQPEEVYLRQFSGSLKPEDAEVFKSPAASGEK
Sequence of Transient receptor potential cation channel subfamily M member 8 (Rattus norvegicus) (Q8R455 whole entry, looked up): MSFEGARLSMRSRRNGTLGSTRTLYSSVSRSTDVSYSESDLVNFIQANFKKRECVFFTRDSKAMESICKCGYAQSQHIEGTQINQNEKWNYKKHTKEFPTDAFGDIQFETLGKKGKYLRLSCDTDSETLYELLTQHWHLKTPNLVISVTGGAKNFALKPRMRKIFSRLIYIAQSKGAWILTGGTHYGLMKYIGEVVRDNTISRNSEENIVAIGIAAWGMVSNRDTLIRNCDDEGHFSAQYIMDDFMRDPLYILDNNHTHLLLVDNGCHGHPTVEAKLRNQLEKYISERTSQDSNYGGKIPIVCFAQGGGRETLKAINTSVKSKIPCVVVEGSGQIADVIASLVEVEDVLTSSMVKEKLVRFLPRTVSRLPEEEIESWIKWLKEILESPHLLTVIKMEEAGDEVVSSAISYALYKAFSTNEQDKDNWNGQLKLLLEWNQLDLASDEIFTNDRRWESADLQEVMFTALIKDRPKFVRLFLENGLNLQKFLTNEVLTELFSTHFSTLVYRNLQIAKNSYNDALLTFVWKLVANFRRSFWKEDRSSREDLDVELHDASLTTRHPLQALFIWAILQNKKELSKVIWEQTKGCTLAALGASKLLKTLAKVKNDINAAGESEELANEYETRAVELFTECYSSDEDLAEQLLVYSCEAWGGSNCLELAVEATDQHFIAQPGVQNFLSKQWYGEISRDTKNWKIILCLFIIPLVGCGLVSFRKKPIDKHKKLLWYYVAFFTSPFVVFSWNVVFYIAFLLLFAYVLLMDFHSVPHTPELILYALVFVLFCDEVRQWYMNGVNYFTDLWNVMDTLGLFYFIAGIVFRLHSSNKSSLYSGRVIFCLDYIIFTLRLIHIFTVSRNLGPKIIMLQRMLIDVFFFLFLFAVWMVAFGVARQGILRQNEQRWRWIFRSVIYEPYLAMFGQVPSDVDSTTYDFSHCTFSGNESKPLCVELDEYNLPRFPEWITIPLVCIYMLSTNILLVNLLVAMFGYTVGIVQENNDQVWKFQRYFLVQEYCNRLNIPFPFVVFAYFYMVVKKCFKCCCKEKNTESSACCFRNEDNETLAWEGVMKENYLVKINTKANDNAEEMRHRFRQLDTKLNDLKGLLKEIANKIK

For `CC12CCC(CC1)C(C)(C)O2` [EUCALYPTOL], the EC50 [1] was 7000 µM.

`CCn1c(N(Cc2ccc(C(F)(F)F)cc2)S(=O)(=O)c2ccccc2)nc2cc(F)ccc21` was tested, and the IC50 [2] was 0.006 µM.

`Cc1c(N(Cc2ccc(OC(F)(F)F)cc2)S(=O)(=O)CCN2CCC(c3ccccc3)CC2)sc2ccccc12` showed an IC50 [3] of 0.026 µM.

With `C=CCc1ccc(O)c(OC)c1` [EUGENOL] the EC50 [4] was 66 µM.

For `CC(C)[C@@H]1CC[C@@H](C)C[C@H]1C(=O)NCC(NC(=O)[C@H](C)N)c1ccccc1` (stereo partly drawn), the EC50 [5] was < 5 µM.

Work on `COc1nc(-c2ccccc2Cl)cc2nc(-c3c(Cl)c(C(C)(C)C)nn3C)[nH]c12` yielded an IC50 [2] of 0.0035 µM.

In the case of `O=C(N[C@]1(c2ccc(OC(F)(F)F)cc2)CCOc2cccnc21)c1ccc2[nH]cnc2c1`, the inhibition in vivo at 1 mg/kg (Rattus norvegicus [6]) is reported as > 90% and the IC50 [7] is reported as 0.004 µM.

`CCCCC/C=C/C/C=C\C/C=C/C/C=C/CCCC(=O)NCCc1ccc(O)c(O)c1` was tested, and the IC50 [8] was 0.7 µM.

`CC(C)[C@@H]1CC[C@@H](C)C[C@H]1OC(=O)[C@@H](C)O` gave an EC50 [5] of 160 µM.

`COc1cc(CN(CCN)C(=O)NC(C)c2ccccc2)ccc1OCc1ccccc1` (stereo not drawn) gave an IC50 [9] of 50 pM.

With `NCCc1c[nH]c2ccc(Oc3ccccc3)cc12` the IC50 [10] was 0.34 µM.

With `COc1cnc(-c2ccccn2)nc1CC(C)C` the EC50 [11] was 0.1 µM.

Molecule `COc1cc(CNC(=O)CCCC/C=C/C(C)C)ccc1O` [CAPSAICIN] has an IC50 [8] of 1 µM.

With `C=C(C)[C@]12C[C@@H](C)[C@@]34OC(Cc5ccccc5)(O[C@@H]1C3C=C(COC(=O)Cc1ccc(O)c(OC)c1)C[C@]1(O)C(=O)C(C)=C[C@@H]41)O2` (stereo partly drawn) the IC50 [8] was 0.15 µM.

With `COc1ccc(CCCOC(Cn2ccnc2)c2ccc(OC)cc2)cc1` (stereo not drawn) the IC50 [8] was 0.8 µM.

`COc1cc(CN(CCN)c2nc3ccccc3s2)ccc1OCc1ccccc1F` was tested, and the IC50 [8] was < 0.02 µM.

With `CCCCCc1cc2c(c(O)c1C(=O)O)[C@@H]1C=C(C)CC[C@H]1C(C)(C)O2` [DELTA9-TETRAHYDROCANNABINOLIC ACID A] the IC50 [8] was 0.15 µM.

In the case of `Cc1ccc2nc(C(F)(F)F)n(-c3ccc(C(=O)CN4C(=O)NC5(CCC(F)(F)CC5)C4=O)cc3)c2n1`, the IC50 [12] is reported as < 0.01 µM.

Work on `COc1ccc(NC(=O)[C@@H]2C[C@H](C)CC[C@H]2C(C)C)c(NC(=O)[C@@H](C)N)c1` yielded an EC50 [5] of 3 µM.

`Cc1c(N(Cc2ccc(F)c(C(F)(F)F)c2)S(=O)(=O)c2ccc(C(=O)O)cc2)sc2ccccc12` was tested, and the inhibition in vivo at 30 mg/kg (Rattus norvegicus [13]) was 69%, the IC50 [14] was 0.0023 µM and the Activity (Rattus norvegicus [15]) was 91%. The IC50 [16] was 0.0011 µM, the inhibition in vivo at 30 mg/kg (Rattus norvegicus [17]) was 64% and the “inhibition (INH)” value (Rattus norvegicus [18]) was 75%. It also gave an ED50 (Rattus norvegicus [19]) of 2.5 mg/kg.

Work on `Clc1ccc(COC(Cn2ccnc2)c2ccc(Cl)cc2Cl)cc1` (stereo not drawn) [ECONAZOLE] yielded an IC50 [8] of 0.42 µM.

With `C[C@H](N)[C@H](O)C/C=C\C/C=C\C/C=C\C/C=C\C/C=C\C/C=C\CCCCCC[C@@H](O)[C@H](C)N` the IC50 [8] was 6 µM.

`COc1ccccc1C(=O)N([C@H]1CCc2c(F)cc(Cl)cc21)[C@@H](C(N)=O)c1ccccc1` was tested, and the inhibition in vivo at 3 mg/kg (Rattus norvegicus [20]) was 100%.

`Cc1cc(NC(C)C)no1` was tested, and the EC50 [21] was 0.1 µM.

In the case of `CC(C)OP(=O)(OC(C)C)[C@@H](Cc1ccc(F)c(C(F)(F)F)c1)c1sc2ccccc2c1Br`, the Activity (Rattus norvegicus [22]) is reported as 80% and the IC50 [3] is reported as 0.009 µM.

In the case of `CCCCC/C=C/C/C=C\C/C=C/C/C=C/CCCC(=O)NCCO`, the IC50 [8] is reported as 0.15 µM.

`Clc1ccc(-c2nnc(N3CCOCC3)n2-c2ccccc2)cc1` gave an EC50 [21] of 45 µM and an EC50 [23] of 4 µM.

For `COc1ccc2c(c1)n(CCN)c(=O)n2C(=O)[C@@H]1C[C@H](C)CC[C@H]1C(C)C`, the EC50 [5] was < 5 µM.

For `COc1ccc(NC(=O)[C@@H]2C[C@H](C)CC[C@H]2C(C)C)cc1` [ACOLTREMON], the EC50 [5] was 12 µM.

`C=C(C)[C@@H]1CCC(C)=C[C@H]1c1c(O)cc(CCCCC)cc1O` [CANNABIDIOL] was tested, and the IC50 [8] was 0.06 µM.

`C=CCc1cc(OC)c(OC(C)C(O[C@@H]2C[C@H](C)CC[C@H]2C(C)C)c2ccc(OC)c(OC)c2)c(OC)c1` (stereo partly drawn) gave an EC50 [5] of 10 µM.

In the case of `FC(F)(F)c1ccccc1-c1cc(C(F)(F)F)c2[nH]c(C3=NOC4(CCCCC4)C3)nc2c1`, the Activity (Rattus norvegicus [24]) is reported as 98% and the “inhibition (INH)” value (Rattus norvegicus [25]) is reported as 83%.

Molecule `CC(C)[C@@H]1CC[C@@H](C)C[C@H]1C(=O)Nc1ccc(S(=O)(=O)Nc2ncccn2)cc1` has an EC50 [5] of 4 µM.

`CC(C)=CCC/C(C)=C/CO` [GERANIOL] was tested, and the EC50 [1] was 6000 µM.

Molecule `CCn1/c(=N/S(=O)(=O)c2ccccc2)n(Cc2ccc(C(F)(F)F)c(F)c2)c2cc(C(F)(F)F)ccc21` has an IC50 [2] of 0.005 µM.

`CCCCCc1cc(O)c(C/C=C(\C)CCC=C(C)C)c(O)c1` [CANNABIGEROL] gave an IC50 [8] of 0.16 µM.

Work on `c1ccc(CN(CCc2c[nH]c3ccccc23)Cc2ccccc2)cc1` yielded an IC50 [26] of 0.035 µM and an IC50 [8] of 0.8 µM.

`O=C(O)c1ccc(S(=O)(=O)N(Cc2ccc(OC(F)(F)F)cc2)c2ncc(C(F)(F)F)cc2Cl)cc1` showed an ED50 [27] of 0.65 mg/kg.

With `COC(=O)C(NCc1ccccc1)[C@H](Cc1ccccc1)NC(=O)OCc1ccccc1` (stereo partly drawn) the IC50 [28] was 3 µM.

Work on `Cc1c(N(Cc2ccc(F)c(C(F)(F)F)c2)S(=O)(=O)N2CCC(C(=O)O)CC2)sc2ccccc12` yielded an IC50 [3] of 0.026 µM.

`Clc1ccccc1C(c1ccccc1)(c1ccccc1)n1ccnc1` [CLOTRIMAZOLE] gave an IC50 [8] of 8 µM.

In the case of `CCCCCc1cc(O)c2c(c1)OC(C)(C)[C@@H]1CCC(C)=C[C@@H]21` [DRONABINOL], the IC50 [8] is reported as 0.16 µM.
